Reference: PubChem BioAssay (NCI)
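Tested at 5 concentrations; 48 h exposure; 96-well plates; endpoints linearly interpolated, else capped at highest concentration. GI50 = concentration required for 50% inhibition of growth. TGI denotes the concentration required for complete inhibition of growth.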

Columns and labels:
Experiment in all cases: NCI tumour cell line growth inhibition, 48 h
786-0 renal = tested on: 786-0 renal
A498 renal = tested on: A498 renal
A549 NSCLC = tested on: A549 NSCLC
ACHN renal = tested on: ACHN renal
BT-549 breast = tested on: BT-549 breast
CAKI-1 renal = tested on: CAKI-1 renal
CCRF-CEM leukemia = tested on: CCRF-CEM leukemia
COLO 205 colon = tested on: COLO 205 colon
DU-145 prostate = tested on: DU-145 prostate
EKVX NSCLC = tested on: EKVX NSCLC
HCC-2998 colon = tested on: HCC-2998 colon
HCT-116 colon = tested on: HCT-116 colon
HCT-15 colon = tested on: HCT-15 colon
HL-60(TB) leukemia = tested on: HL-60(TB) leukemia
HOP-62 NSCLC = tested on: HOP-62 NSCLC
HOP-92 NSCLC = tested on: HOP-92 NSCLC
HT29 colon = tested on: HT29 colon
IGROV1 ovarian = tested on: IGROV1 ovarian
K-562 leukemia = tested on: K-562 leukemia
KM12 colon = tested on: KM12 colon
M14 melanoma = tested on: M14 melanoma
MALME-3M melanoma = tested on: MALME-3M melanoma
MCF7 breast = tested on: MCF7 breast
MDA-MB-435 = tested on: MDA-MB-435
MDA-MB-468 breast = tested on: MDA-MB-468 breast
MOLT-4 leukemia = tested on: MOLT-4 leukemia
NCI-H226 lung = tested on: NCI-H226 lung
NCI-H23 lung = tested on: NCI-H23 lung
NCI-H460 lung = tested on: NCI-H460 lung
NCI-H522 lung = tested on: NCI-H522 lung
NCI/ADR-RES ovarian = tested on: NCI/ADR-RES ovarian
OVCAR-3 ovarian = tested on: OVCAR-3 ovarian
OVCAR-4 ovarian = tested on: OVCAR-4 ovarian
OVCAR-5 ovarian = tested on: OVCAR-5 ovarian
OVCAR-8 ovarian = tested on: OVCAR-8 ovarian
PC-3 prostate = tested on: PC-3 prostate
RPMI-8226 leukemia = tested on: RPMI-8226 leukemia
RXF 393 renal = tested on: RXF 393 renal
SF-268 CNS = tested on: SF-268 CNS
SF-295 CNS = tested on: SF-295 CNS
SF-539 CNS = tested on: SF-539 CNS
SK-MEL-2 melanoma = tested on: SK-MEL-2 melanoma
SK-MEL-28 melanoma = tested on: SK-MEL-28 melanoma
SK-MEL-5 melanoma = tested on: SK-MEL-5 melanoma
SK-OV-3 ovarian = tested on: SK-OV-3 ovarian
SN12C renal = tested on: SN12C renal
SNB-19 CNS = tested on: SNB-19 CNS
SNB-75 CNS = tested on: SNB-75 CNS
SR leukemia = tested on: SR leukemia
T-47D breast = tested on: T-47D breast
TK-10 renal = tested on: TK-10 renal
U251 CNS = tested on: U251 CNS
UACC-257 melanoma = tested on: UACC-257 melanoma
UACC-62 melanoma = tested on: UACC-62 melanoma
UO-31 renal = tested on: UO-31 renal

COc1ccc(-c2ccnc(SCc3cc4cc(OC)ccc4[nH]c3=O)n2)cc1 was tested, and the GI50 (786-0 renal) was 26 µM, the TGI (786-0 renal) was > 100 µM and the GI50 (A498 renal) was > 100 µM. The TGI (A498 renal) was > 100 µM, the GI50 (A549 NSCLC) was 10.1 µM and the TGI (A549 NSCLC) was > 100 µM. For the same molecule, the GI50 (ACHN renal) was 20.6 µM, the TGI (ACHN renal) was > 100 µM and the GI50 (BT-549 breast) was 3.4 µM. The TGI (BT-549 breast) was > 100 µM, the GI50 (CAKI-1 renal) was 6.11 µM and the TGI (CAKI-1 renal) was > 100 µM. The GI50 (CCRF-CEM leukemia) was 6.66 µM, the TGI (CCRF-CEM leukemia) was > 100 µM and the GI50 (COLO 205 colon) was 17.3 µM. For the same molecule, the TGI (COLO 205 colon) was > 100 µM, the GI50 (DU-145 prostate) was 34.9 µM and the TGI (DU-145 prostate) was > 100 µM. For the same molecule, the GI50 (EKVX NSCLC) was 4.16 µM, the TGI (EKVX NSCLC) was > 100 µM and the GI50 (HCC-2998 colon) was 31.4 µM. For the same molecule, the TGI (HCC-2998 colon) was > 100 µM, the GI50 (HCT-116 colon) was 3.64 µM and the TGI (HCT-116 colon) was > 100 µM. For the same molecule, the GI50 (HCT-15 colon) was 4.33 µM, the TGI (HCT-15 colon) was > 100 µM and the GI50 (HL-60(TB) leukemia) was 2.34 µM. The TGI (HL-60(TB) leukemia) was > 100 µM, the GI50 (HOP-62 NSCLC) was 10.9 µM and the TGI (HOP-62 NSCLC) was 97.9 µM. The GI50 (HOP-92 NSCLC) was 7.95 µM, the TGI (HOP-92 NSCLC) was > 100 µM and the GI50 (HT29 colon) was 5.38 µM. The TGI (HT29 colon) was > 100 µM, the GI50 (IGROV1 ovarian) was 5.66 µM and the TGI (IGROV1 ovarian) was > 100 µM. For the same molecule, the GI50 (K-562 leukemia) was 2.55 µM, the TGI (K-562 leukemia) was > 100 µM and the GI50 (KM12 colon) was 9.43 µM. The TGI (KM12 colon) was > 100 µM, the GI50 (M14 melanoma) was 7.31 µM and the TGI (M14 melanoma) was > 100 µM. The GI50 (MALME-3M melanoma) was 17 µM, the TGI (MALME-3M melanoma) was > 100 µM and the GI50 (MCF7 breast) was 4.65 µM. The TGI (MCF7 breast) was > 100 µM, the GI50 (MDA-MB-435) was 3.17 µM and the TGI (MDA-MB-435) was > 100 µM. The GI50 (MDA-MB-468 breast) was 2.09 µM, the TGI (MDA-MB-468 breast) was 6.16 µM and the GI50 (MOLT-4 leukemia) was 3.26 µM. The TGI (MOLT-4 leukemia) was > 100 µM, the GI50 (NCI-H226 lung) was 8.14 µM and the TGI (NCI-H226 lung) was > 100 µM. The GI50 (NCI-H23 lung) was 19 µM, the TGI (NCI-H23 lung) was > 100 µM and the GI50 (NCI-H460 lung) was 7.41 µM. The TGI (NCI-H460 lung) was > 100 µM, the GI50 (NCI-H522 lung) was 7.82 µM and the TGI (NCI-H522 lung) was > 100 µM. For the same molecule, the GI50 (NCI/ADR-RES ovarian) was 4.06 µM, the TGI (NCI/ADR-RES ovarian) was > 100 µM and the GI50 (OVCAR-3 ovarian) was 17.9 µM. The TGI (OVCAR-3 ovarian) was > 100 µM, the GI50 (OVCAR-4 ovarian) was 17.6 µM and the TGI (OVCAR-4 ovarian) was > 100 µM. For the same molecule, the GI50 (OVCAR-5 ovarian) was 23.6 µM, the TGI (OVCAR-5 ovarian) was > 100 µM and the GI50 (OVCAR-8 ovarian) was 22.8 µM. For the same molecule, the TGI (OVCAR-8 ovarian) was > 100 µM, the GI50 (PC-3 prostate) was 6.96 µM and the TGI (PC-3 prostate) was > 100 µM. The GI50 (RPMI-8226 leukemia) was 5.05 µM, the TGI (RPMI-8226 leukemia) was > 100 µM and the GI50 (RXF 393 renal) was 4.42 µM. The TGI (RXF 393 renal) was > 100 µM, the GI50 (SF-268 CNS) was 17.7 µM and the TGI (SF-268 CNS) was > 100 µM. The GI50 (SF-295 CNS) was 7.09 µM, the TGI (SF-295 CNS) was > 100 µM and the GI50 (SF-539 CNS) was 6.67 µM. For the same molecule, the TGI (SF-539 CNS) was > 100 µM, the GI50 (SK-MEL-2 melanoma) was 6.27 µM and the TGI (SK-MEL-2 melanoma) was > 100 µM. For the same molecule, the GI50 (SK-MEL-28 melanoma) was 14.1 µM, the TGI (SK-MEL-28 melanoma) was > 100 µM and the GI50 (SK-MEL-5 melanoma) was 4.95 µM. The TGI (SK-MEL-5 melanoma) was 38 µM, the GI50 (SK-OV-3 ovarian) was 56.3 µM and the TGI (SK-OV-3 ovarian) was > 100 µM. For the same molecule, the GI50 (SN12C renal) was 7.41 µM, the TGI (SN12C renal) was > 100 µM and the GI50 (SNB-19 CNS) was 35.2 µM. For the same molecule, the TGI (SNB-19 CNS) was > 100 µM, the GI50 (SNB-75 CNS) was 2.46 µM and the TGI (SNB-75 CNS) was 71.4 µM. For the same molecule, the GI50 (SR leukemia) was 2.95 µM, the TGI (SR leukemia) was > 100 µM and the GI50 (T-47D breast) was 4.97 µM. For the same molecule, the TGI (T-47D breast) was > 100 µM, the GI50 (TK-10 renal) was 26.1 µM and the TGI (TK-10 renal) was > 100 µM. For the same molecule, the GI50 (U251 CNS) was 12.4 µM, the TGI (U251 CNS) was > 100 µM and the GI50 (UACC-257 melanoma) was 74.5 µM. For the same molecule, the TGI (UACC-257 melanoma) was > 100 µM, the GI50 (UACC-62 melanoma) was 4.62 µM and the TGI (UACC-62 melanoma) was > 100 µM. The GI50 (UO-31 renal) was 8.94 µM and the TGI (UO-31 renal) was > 100 µM.
